The values below come from patent US11365202B2, “Antimalarial compounds, process for preparation and their use for drug resistant malaria” (Council of Scientific and Industrial Research, priority 2018, dated 2022).

For data set [1], the system named is P. falciparum 3D7. Briefly: P. falciparum growth inhibition assay, 3D7 strain. The format is cell-based. The conditions noted are these: Plasmodium falciparum, 3D7, 48 h, read-out: EC50 on P. falciparum 3D7. As to the method:
P. falciparum strain 3D7, Dd2 and 7G8 were cultured in RPMI media (Invitrogen) supplemented with 0.5% albumax and 4% haematocrit using a protocol described previously [Trager and Jensen (Science,1976; 193:673-675)]. Cultures were synchronized by repeated sorbitol treatment following Lambros and Vanderberg (J Parasitol; 1979; 65:418-420). Each growth inhibition assay was performed in triplicate and the experiment was repeated twice. Each well contained 0.5 ml of complete media [RPMI (invitrogen) with 0.5% albumax], 4% haematocrit and the parasitaemia adjusted to ˜1%; the compound added to the parasite cultures to desired final concentrations (0-100 µM) and same amount of solvent (DMSO) was added to the control wells. The cultures were allowed to grow further for 48 h. Parasite growth was assessed by DNA fluorescent dye-binding assay using SYBR green (Sigma) following Smilkstein et al (Antimicrob Agents Chemother.; 2004, 48, 1803-1806). • f) In Vitro Toxicity Assay on CHO Cells

In data set [2] the target is falcipain-2 (Plasmodium falciparum (isolate 3D7), UniProt Q8I6U4). The data set can be described thus: Fluorometric assay for falcipain-2 activity. The format is biochemical.
Experimental: Recombinant falcipain-2 was prepared according to the method described by Shenai et al. (J Biol Chem.; 2000, 275(37): 29000-10) and Kumar et al. (Biochem Biophys. Res Commun. 2004, 317(1), 38-45) with slight modification. Briefly, Escherichia coli M15 containing pQE30-FP-2 plasmid were grown to mid-log phase and induced with isopropyl-1-thio-b-D-galactopyranoside (IPTG, 0.5 mM) for 5 h at 37° C. Cells were harvested, washed with ice-cold 100 mM Tris-Cl, 10 mM EDTA, pH 7.4, sonicated (12 cycles of 10 s each, with cooling for 10 s between the cycles), and centrifuged at 15,000 rpm for 45 min at 4° C. The pellet was washed twice with 2.5 M urea, 20 mM Tris-Cl2.5% Triton X-100, pH 8.0; centrifuged at 15,000 rpm for 45 min at 4° C.; and solubilized in 6 M guanidine HCl, 20 mM Tris-Cl, 250 mM NaCl, 20 mM imidazole, pH 8.0 (5 ml/g of inclusion body pellet) at RT for 60 min with gentle stirring. Insoluble material was separated by centrifuging at 15,000 rpm for 60 min at 4° C. For the purification of the recombinant protein, the supernatant was incubated overnight at 4° C. with a nickel-nitrilotriacetic acid (Ni-NTA) resin. The resin was loaded on a column and washed with 10 bed volumes each of 6 M guanidine HCl, 20 mM Tris-Cl, 250 mM NaCl, pH 8.0; 8 M urea, 20 mM Tris-Cl, 500 mM NaCl, pH 8.0; and 8 M urea, 20 mM Tris-Cl, 30 mM imidazole, pH 8.0. Bound protein was eluted with 8 M urea, 20 mM Tris-Cl, 1 M imidazole, pH 8.0 and quantified by the Biocinchoninic acid assay. For the refolding, the fractions containing falcipain-2 protein were pooled in ice-cold refolding buffer: 100 mM diluted in Tris-Cl, 1 mM EDTA, 20% glycerol, 250 mM L-arginine, 1 mM GSH, 1 mM GSSG, pH 8.0 was added in a 100 fold dilution. The mixture was incubated with moderate stirring at 4° C. for 24 h, and concentrated to 25 ml using a stirred cell with a 10-kDa cut-off membrane (Pellicon XL device, Millipore) at 4° C. […] The purified and concentrated protein was quantified using Biocinchoninic acid assay. • b) Fluorometric Assay for Falcipain-2 activity:
For screening of falcipain-2 inhibitors, a 96-well plate fluorometric assay was developed following a protocol described by Kumar et al. (Biochem Biophys Res Commun.; 2004, 317(1), 38-45) Briefly, reaction was set up in a 200 ml reaction mixture containing 100 mM NaOAc, 10 mM DTT, 6 mg enzyme and different concentrations of inhibitors, pH 5.5. 10 mM of fluorogenic substrate benzyloxycarbonyl-Phe-Arg-7-amino-4-methylcoumarin hydrochloride (ZFR-AMC) was added, and the release of 7-amino-4-methylcoumarin (AMC) was monitored (excitation 355 nm; emission 460 nm) over 30 min at RT in Perkin Elmer Victor3 multi-label counter. […] The IC50 values were calculated from curve fittings by software Workout V 2.5.
The subject of data set [3] is A549 human cells. Briefly: In vitro toxicity on mammalian cell culture. The format is cell-based.
Data set [4] concerns P. berghei. Briefly: In vivo parasiticidal assay with P. berghei mice malaria model. As to the method:
Five groups of female BALB/c mice, 6-8 weeks of age (four mice/group) were used for testing the in vivo parsiticidal and protective efficacy of different drug treatments. Mice were injected IP with 1×10^6 P. berghei infected erythrocytes. The drug treatment was initiated 5 days after inducing parasitemia; mice in a group were given 4 doses of a compound at 12.5 mg/Kg of body weight. Control mice were given solvent alone. The parasitemia was assessed everyday in thin smears of Giemsa stained RBCs from tail blood of each mouse, by counting parasitized erythrocytes in more than 10,000 erythrocytes. Time of death of the mice in each group was also monitored.

[5] abbreviates: 4 doses of 12.5 mg/Kg of body weight, infected BALB/c mice.

Molecules are shown by their SMILES. Some results are limits rather than exact numbers.

falcipain-2, sequence (Q8I6U4 244-484 limits assumed): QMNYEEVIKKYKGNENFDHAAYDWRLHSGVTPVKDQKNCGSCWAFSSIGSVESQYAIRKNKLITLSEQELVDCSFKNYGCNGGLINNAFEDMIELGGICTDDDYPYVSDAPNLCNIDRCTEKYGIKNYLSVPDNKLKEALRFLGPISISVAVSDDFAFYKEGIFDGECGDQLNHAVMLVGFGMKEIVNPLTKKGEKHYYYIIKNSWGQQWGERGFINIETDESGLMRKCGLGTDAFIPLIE

Turning to `CCOP(=O)(/C=C/[C@@H](NC(=O)[C@H](CC(C)C)NC(=O)[C@@H]1C[C@@H](O[C@H]2O[C@@H]3OC4(C)CC[C@H]5[C@H](C)CC[C@@H]([C@H]2C)[C@@]35OO4)CN1C(=O)OCc1ccccc1)c1ccccc1)OCC` (stereo in doubt) [Compound 5a, Benzyl (2S,4R)-2-(((S)-1-(((R,E)-3-(diethoxyphosphoryl)-1-phenylallyl)amino)-4-methyl-1-oxopentan-2-yl)carbamoyl)-4-(((3R,5aS,6R,8aS,9R,10S,12R,12aR)-3,6,9-trimethyldeca hydro-12H-3,12-epoxy[1,2]dioxepino[4,3-i]isochromen-10-yl)oxy)pyrrolidine-1-carboxylate], in data set [1], the EC50 (as a rule, the concentration at which the effect is half-maximal) was 1.04 nM.
`CCOP(=O)(/C=C/C(NC(=O)[C@H](Cc1ccccc1)NC(=O)[C@@H]1C[C@@H](O[C@H]2O[C@@H]3OC4(C)CC[C@H]5[C@H](C)CC[C@@H]([C@H]2C)[C@@]35OO4)CN1C(=O)OCc1ccccc1)c1ccccc1)OCC` (stereo in doubt) [Compound 6, Benzyl (2S,4R)-2-(((2S)-1-(((E)-3-(diethoxyphosphoryl)-1-phenylallyl)amino)-1-oxo-3-phenylpropan-2-yl)carbamoyl)-4-(((3R,5aS,6R,8aS,9R,10S,12R,12aR)-3,6,9-trimethyldecahydro-12H-3,12-epoxy[1,2]dioxepino[4,3-i]isochromen-10-yl)oxy)pyrrolidine-1-carboxylate]: the “activity against falcipain-2 enzyme (in words)” value (from here on “activity”) in data set [2] is “inactive”.
In the case of `CCOP(=O)(/C=C/[C@@H](NC(=O)[C@H](CC(C)C)NC(=O)[C@H](CO[C@H]1O[C@@H]2OC3(C)CC[C@H]4[C@H](C)CC[C@@H]([C@H]1C)[C@@]24OO3)NC(=O)OCc1ccccc1)c1ccccc1)OCC` (stereo in doubt) [Compound 3a, Benzyl ((S)-1-(((S)-1-(((R,E)-3-(diethoxyphosphoryl)-1-phenylallyl)amino)-4-methyl-1-oxopentan-2-yl)amino)-1-oxo-3-(((3R,5aS,6R,8aS,9R,10S,12R,12aR)-3,6,9-trimethyldeca hydro-12H-3,12-epoxy[1,2]dioxepino[4,3-i]isochromen-10-yl)oxy)propan-2-yl)carbamate], the EC50 in data set [1] worked out at 10.9 nM.
Same read-out and setting: as for `CCOP(=O)(/C=C/[C@H](NC(=O)[C@H](Cc1ccccc1)NC(=O)[C@H](CO[C@H]1O[C@@H]2O[C@@]3(C)CC[C@H]4[C@H](C)CC[C@@H]([C@H]1C)[C@@]24OO3)NC(=O)OCc1ccccc1)c1ccccc1)OCC` [Compound 2b, Benzyl ((S)-1-(((S)-1-(((S,E)-3-(diethoxyphosphoryl)-1-phenylallyl)amino)-1-oxo-3-phenylpropan-2-yl)amino)-1-oxo-3-(((3R,5aS,6R,8aS,9R,10S,12R,12aR)-3,6,9-trimethyldeca hydro-12H-3,12-epoxy[1,2]dioxepino[4,3-i]isochromen-10-yl)oxy)propan-2-yl)carbamate], the figure is 2.03 nM.
As for `CCOP(=O)(/C=C/C(NC(=O)[C@H](Cc1ccccc1)NC(=O)[C@H](CO[C@H]1O[C@@H]2O[C@@]3(C)CC[C@H]4[C@H](C)CC[C@@H]([C@H]1C)[C@@]24OO3)NC(=O)OCc1ccccc1)c1ccccc1)OCC` (stereo partly drawn) [Compound 2, Benzyl ((2S)-1-(((2S)-1-(((E)-3-(diethoxyphosphoryl)-1-phenylallyl)amino)-1-oxo-3-phenylpropan-2-yl)amino)-1-oxo-3-(((3R,5aS,6R,8aS,9R,10S,12R,12 aR)-3,6,9-trimethyldeca hydro-12H-3,12-epoxy[1,2]dioxepino[4,3-i]isochromen-10-yl)oxy)propan-2-yl)carbamate], in data set [3], the “in vitro toxicity on A549 human cells (in words)” value is “non-toxic”. Also, the “protection in treated group of mice” value in data set [4] (12.5 mg/kg of body weight) is listed as 100%. In data set [4] (setting [5]), the “Complete Protection - Mice with complete parasite clearance” value is on record as 80% of treated mice and the Survival after treatment was more than 60 days.
As for `CCOP(=O)(/C=C/C(NC(=O)[C@@H]1C[C@@H](O[C@H]2O[C@@H]3OC4(C)CC[C@H]5[C@H](C)CC[C@@H]([C@H]2C)[C@@]35OO4)CN1C(=O)OCc1ccccc1)c1ccccc1)OCC` (stereo in doubt) [Compound 4, Benzyl (2S,4R)-2-(((E)-3-(diethoxyphosphoryl)-1-phenylallyl)carbamoyl)-4-(((3R,5aS, 6R,8aS,9R,10S,12R,12aR)-3,6,9-trimethyldecahydro-12H-3,12-epoxy[1,2]dioxepino[4,3-i]isochromen-10-yl)oxy)pyrrolidine-1-carboxylate], the “activity” value in data set [2] is “inactive”.
Consider `CCOP(=O)(/C=C/C(NC(=O)[C@H](CO[C@H]1O[C@@H]2O[C@@]3(C)CC[C@H]4[C@H](C)CC[C@@H]([C@H]1C)[C@@]24OO3)NC(=O)OCc1ccccc1)c1ccccc1)OCC` (mixture of isomers) [Compound 1, Benzyl ((2S)-1-(((E)-3-(diethoxyphosphoryl)-1-phenylallyl)amino)-1-oxo-3-(((3R,5aS,6R, 8aS,9R,10S,12R,12aR)-3,6,9-trimethyldecahydro-12H-3,12-epoxy[1,2]dioxepino[4,3-i]isochromen-10-yl)oxy)propan-2-yl)carbamate], for which, in data set [2], the half-maximal inhibitory concentration (IC50) (as a rule, the point on the concentration scale where inhibition reaches its midpoint) was more than 100000 nM and the “activity” value was “inactive”.
Consider `CCOP(=O)(/C=C/[C@@H](NC(=O)[C@H](Cc1ccccc1)NC(=O)[C@H](CO[C@H]1O[C@@H]2O[C@@]3(C)CC[C@H]4[C@H](C)CC[C@@H]([C@H]1C)[C@@]24OO3)NC(=O)OCc1ccccc1)c1ccccc1)OCC` [Compound 2a, Benzyl ((S)-1-(((S)-1-(((R,E)-3-(diethoxyphosphoryl)-1-phenylallyl)amino)-1-oxo-3-phenylpropan-2-yl)amino)-1-oxo-3-(((3R,5aS,6R,8aS,9R,10S,12R,12aR)-3,6,9-trimethyldeca hydro-12H-3,12-epoxy[1,2]dioxepino[4,3-i]isochromen-10-yl)oxy)propan-2-yl)carbamate], for which, in data set [1], the concentration giving a half-maximal response (EC50) turned out to be 0.95 nM.
In the case of `CCOP(=O)(/C=C/[C@H](NC(=O)[C@H](CC(C)C)NC(=O)[C@H](CO[C@H]1O[C@@H]2OC3(C)CC[C@H]4[C@H](C)CC[C@@H]([C@H]1C)[C@@]24OO3)NC(=O)OCc1ccccc1)c1ccccc1)OCC` (stereo in doubt) [Compound 3b, Benzyl ((S)-1-(((S)-1-(((S,E)-3-(diethoxyphosphoryl)-1-phenylallyl)amino)-4-methyl-1-oxopentan-2-yl)amino)-1-oxo-3-(((3R,5aS,6R,8aS,9R,10S,12R,12aR)-3,6,9-trimethyldeca hydro-12H-3,12-epoxy[1,2]dioxepino[4,3-i]isochromen-10-yl)oxy)propan-2-yl)carbamate], the 50% effective concentration (EC50) in data set [1] was 16.7 nM.
Still for that read-out and setting: as for `CCOP(=O)(/C=C/[C@H](NC(=O)[C@H](CC(C)C)NC(=O)[C@@H]1C[C@@H](O[C@H]2O[C@@H]3OC4(C)CC[C@H]5[C@H](C)CC[C@@H]([C@H]2C)[C@@]35OO4)CN1C(=O)OCc1ccccc1)c1ccccc1)OCC` (stereo in doubt) [Compound 5b, Benzyl (2S,4R)-2-(((S)-1-(((S,E)-3-(diethoxyphosphoryl)-1-phenylallyl)amino)-4-methyl-1-oxopentan-2-yl)carbamoyl)-4-(((3R,5aS,6R,8aS,9R,10S,12R,12aR)-3,6,9-trimethyldeca hydro-12H-3,12-epoxy[1,2]dioxepino[4,3-i]isochromen-10-yl)oxy)pyrrolidine-1-carboxylate], the figure is 6.12 nM.
